In patent publication US11958915B2, “Methods for treatment and diagnosis of non-alcoholic steatohepatitis and/or hepatocellular carcinoma” (Marshall University Research Corporation, priority 2020, dated 2024):

Tests used:
[1] = system: two human HCC cell lines (HEP3B and SNU475); assay: Protein expression by western blotting/confocal microscopy, two human HCC cell lines; type: cell-based; conditions: two Human HCC cells exposed to digoxin
Experimental: (§1) In-vitro studies: cell lines and cell culture. Human HCC cell lines (HEP3B and SNU475 from ATCC, Cambridge, Mass.) were checked regularly for Mycoplasma contamination using RT-PCR kit while growing in culture with high glucose DMEM media supplemented with 10% FBS and 1% Penicillin/Streptomycin (HEP3), or with RPMI 1640 media supplemented with 10% heat inactivated FBS and 1% Penicillin/Streptomycin (SNU475) in 37° C. humidified incubator in presence of CO2 at 5%.
Confocal microscopy assessment on Immuno-stained cells/liver tissue. For in vitro studies, immunocytochemistry was performed on both human HCC cell lines as previously described. Briefly, the treated for 4 hours cells and the untreated cells were plated on glass coverslips and allowed to reach 70% confluency. […] Next day, slides were incubated with secondary antibodies (Alexa Fluor 488 or 549) and mounted with Vectashield mounting media on slides containing DAPI (Vector Laboratories, Inc., H-1800).
Western Blotting. […] Blocked membranes were incubated with the specific primary/secondary antibodies for protein signals to be detected by the Pierce ECL kit (Thermo Fisher Scientific, Waltham, Mass.), and quantified using ImageJ software.

[2] = system: two human HCC cell lines (HEP3B and SNU475); assay: MTT cell proliferation assay, two human HCC cell lines; type: cell-based; conditions: PI3K/Akt pathway inhibitors on two human HCC cell lines
Experimental: as §1
MTT Cell proliferation assay was performed by plating 5000 cells/well in 6 wells (per condition) of 96 well plates and allowed to adhere for 24 hours, when media was replaced with media±treatment agent for another 24 hours to finally assess cell proliferation according to the manufacturer's instructions (MTT assay, from #ATCC® 30-1010K, Cambridge, Mass.). Digoxin was dissolved in serum free media before addition to cells at designated concentrations.

Compound	expression of survivin [1]	cell proliferation (MTT assay) [2]
C[C@H]1O[C@@H](O[C@H]2[C@@H](O)C[C@H](O[C@H]3[C@@H](O)C[C@H](O[C@H]4CC[C@@]5(C)[C@H](CC[C@@H]6[C@@H]5C[C@@H](O)[C@]5(C)[C@@H](C7=CC(=O)OC7)CC[C@]65O)C4)O[C@@H]3C)O[C@@H]2C)C[C@H](O)[C@@H]1O [digoxin]	increased the expression of survivin	
N#C/C(=C/c1ccc(O)c(O)c1)C(=O)NCc1ccccc1 [AG490]		inhibited cell proliferation
CC(C)(C)n1nc(-c2ccc(Cl)cc2)c2c(N)ncnc21 [PP2]		inhibited cell proliferation
